Source: patent US20120076788A1, “C-CBL AND ANTAGONISTS THEREOF FOR THE TREATMENT AND DIAGNOSIS OF CANCER” (Centre National De La Recherche Scientifique (C.N.R.S.), priority 2009, published 2012)
Entries after “also recorded” stand apart in the source; their conditions may differ.

How the values were obtained:
[1] = test system: c-Cbl KO and WT Mouse Embryonic Fibroblasts (MEF); test: Apoptotic cells (DAPI nuclear fragmentation, TUNEL) in c-Cbl KO and WT MEFs treated with H2O2 or Etoposide; assay type: cell-based; set-up: more apoptotic cells in KO than in WT MEF cultures: dose or concentration left out as unconfirmed; settings: for more apoptotic cells in KO than in WT MEF cultures: average, 16 or 24 H
Method: The MEFs KO for c-cbl and the MEFs WT were cultured in DMEM, 10% FCS. […] The cells were tested for apoptosis 24 hours after treatment. The human prostate cancer lines were transfected with 125 nM of c-cbl IRNA for 6 hours, and were tested for quenching of c-cbl expression 24 or 48 hours after transfection. The treatment was the same with RAT1-MEN2A cells.
(§1) Each of them are known to involve different signaling routes, both leading to the mitochondrial pathway of apoptosis. Hydrogen peroxide activates C-Jun Kinase, whereas Etoposide blocks topoisomerase II causing dsDNA breaks and DNA-PK/p53 activation (DeYulia et al. 2005 Proc Natl Acad Sci USA 102:5044-9; Kamata and Hirata 1999 Cell Signal 11:1-14; Karpinich et al. 2002 J Biol Chem 277:16547-52).

[2] = test system: c-Cbl KO and WT Mouse Embryonic Fibroblasts (MEF); test: Western blotting of apoptosis proteins in c-Cbl KO and WT MEFs treated with apoptotic inducers; assay type: cell-based; settings: for XIAP expression, decrease relative to control level / c-IAP2 expression, decrease relative to control level: MEFs, apoptosis activation 24 hours (FIG. 3B)
Method: The western blotting (WB) experiments, immunohistochemistry (IHC) experiments and RT PCR experiments, with coamplification of the S 20 ribosomal gene, were carried out according to conventional methods already described in e.g. Omezzine et al. (2003, Biol. Reprod., 69: 752-760), Bozec et al. (2004, J. Endocr., 183: 79-90) and El Chami et al. (2005, J. Cell. Biol., 651-661).
The MEFs KO for c-cbl and the MEFs WT were cultured in DMEM, 10% FCS. The apoptosis inducers were used at a final concentration of 0.5 mM in case of H2O2, and at 10 μM in case of etoposide. The cells were tested for apoptosis 24 hours after treatment. The human prostate cancer lines were transfected with 125 nM of c-cbl IRNA for 6 hours, and were tested for quenching of c-cbl expression 24 or 48 hours after transfection. The treatment was the same with RAT1-MEN2A cells.
as §1

LNCaP cells [3] = test: Protein expression in LNCaP cells cultured with hydrogen peroxide or etoposide; assay type: cell-based, human; settings: 24 hours; for Bax protein expression: particularly upon etoposide treatment; for Bcl-2 expression / c-Cbl expression / c-IAP2 expression: versus absence of agent
Method: (§2) A. c-Cbl expression upon a 24 hours treatment with 25 or 50 nM of hydrogen peroxide respectively, or with 10 or 30 μM of etoposide respectively. Expression of the anti-apoptotic Bcl-2 and c-IAP2 proteins and of the pro-apoptotic Bcl-2 family protein Bax is also shown. B. c-Cbl expression after 48 hours of c-Cbl silencing. Expression of APE1, which is indicative of oxidative stress, is shown compared with medium control (Ctrl) and with si-control (si-Ctrl).
(§3) LNCaP is a human cell line, derived from a prostatic hormone-dependent metastatic tumor. The cells were maintained in RPMI 1640 medium (Invitrogen), supplemented with 7.5% FCS, 20 μg/ml streptomycin, 20 U/ml nystatin. LNCaP were used between the passages 50-60. For western-blotting LNCaP cells were seeded in 10cm disk (22.10^5 cells) and 6 cm disk (8.10^5 cells) respectively, with 5 disks per condition. Cells were allowed to attach for 24H and treated with various concentrations of R1881 at day 0. All the cells, including the controls, were cultured in the presence of the same ethanol concentration. For H2O2 or etoposide treatment, LNCaP cells were cultured for 24 hours in the presence of known concentrations of H2O2 or etoposide. The RNA silencing was classically done in Optimen medium (Gibco) using lipofectamine 2000 following the manufacturer's instructions (Invitrogen). The c-Cbl RNAi was generated by Eurogentec. Its sequence is: […] (SEQ ID NO: 2). The siRNA controls were purchased from Invitrogen : siRNA-A (sc-37007) and siRNA-B (sc-44230).

c-Cbl [4] = test: c-Cbl expression (Western blotting, RT-PCR) in prostate lobes of adult rats exposed to flutamide; assay type: in vivo, rat
c-Cbl [5] = test: In situ c-Cbl staining of rat prostate after flutamide treatment; assay type: in vivo; settings: 10mg/kg/day, 96 H
c-cbl [6] = test: Effectiveness of c-cbl iRNA on c-cbl; settings: human, rat and mouse c-cbl
Text: (§4) The c-cbl IRNA was produced by Eurogentec and had the following sequences: 5′ […] 3′ (SEQ ID NO: 2) and 5′ […] 3′ (SEQ ID NO: 3). It is effective on human, rat and mouse c-cbl. It is ineffective on cbl-b.

LNCaP cells [7] = test: c-Cbl silencing in LNCaP cells, APE1/REF1 oxidative stress signal; assay type: cell-based, human; settings: 48 hours of c-Cbl silencing, versus Ctrl and si-Ctrl
Method: as §2
as §3, with “(SEQ ID NO: 2). The siRNA controls were purchased from Invitrogen : siRNA-A (sc-37007) and siRNA-B (sc-44230).” left out

cbl-b = test: Effectiveness of c-cbl iRNA on cbl-b
Text: as §4

Molecule | percentage of apoptotic cells ([1]; WT MEF cultures) | more apoptotic cells in KO than in WT MEF cultures [1] | percentage of apoptotic cells ([1]; c-Cbl KO MEF cultures) | cleaved caspase 3 expression ([2]; KO or WT MEFs, 24 hours) | XIAP expression, decrease relative to control level [2] | c-IAP2 expression, decrease relative to control level [2] | Bax protein expression (LNCaP cells [3]) | Bcl-2 expression (LNCaP cells [3]) | c-Cbl expression (LNCaP cells [3]) | c-IAP2 expression (LNCaP cells [3]) | sensitivity of c-cbl KO MEF cells versus WT MEF cells ([1]; TUNEL, FIG. 10) | activated caspase 3 expression increase ([2]; WT MEFs, 24 hours) | cleaved (activated) caspase 3 expression relative to control ([2]; c-Cbl KO MEFs, 24 hours) | c-Cbl expression (LNCaP cells [3]; listed as H202) | dose from which decreased c-cbl expression was observed (c-Cbl [4]; dose/effect experiments, rat ventral prostate) | impact on the number of living cells (c-Cbl [4]; doses 2 to 10 mg/kg/day) | integrity of the epithelium border (c-Cbl [5]) | effectiveness on c-cbl (c-cbl [6]) | anti-APE1/REF1 signal (oxidative stress) (LNCaP cells [7]) | effectiveness on cbl-b (cbl-b)
COc1cc([C@@H]2c3cc4c(cc3[C@@H](O[C@@H]3O[C@@H]5CO[C@@H](C)O[C@H]5[C@H](O)[C@H]3O)[C@H]3COC(=O)[C@H]23)OCO4)cc(OC)c1O [Etoposide] | 5.8% | 29% | 4% | slight but not significant increase | around one/third | around one/third | increased | slightly less expressed | slightly less expressed; also recorded: decreased | slightly less expressed |  |  |  |  |  |  |  |  |  | 
OO [H2O2, Hydrogen peroxide] | 4.9% | 43% | 8.75% |  | around one/third | around one/third | increased | slightly less expressed | slightly less expressed | slightly less expressed | about twice | two times | three times and half | decreased |  |  |  |  |  | 
CC(C)C(=O)Nc1ccc([N+](=O)[O-])c(C(F)(F)F)c1 [flutamide] |  |  |  |  |  |  |  |  |  |  |  |  |  |  | ≥ 2 mg/kg/day | very weak impact | did not affect at all |  |  | 
c-cbl IRNA: c-cbl iRNA produced by Eurogentec, sequences SEQ ID NO: 2 and SEQ ID NO: 3 (chain 1 GGGAAGGCUUCUAUUUGUU; chain 2 CUGUCCAUCUAGAGACAAA; listed as RNA, chemistry not given here) |  |  |  |  |  |  |  |  |  |  |  |  |  |  |  |  |  | effective | slight decrease | ineffective
